Columns and labels:
Test in all cases: relative viability (nuclei count vs DMSO), 5 days (fraction); higher = more cells survive
[1] = compound: CC[C@H](CO)Nc1nc(NCc2ccccc2)c2ncn(C(C)C)c2n1 [Seliciclib]
How it was run: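 Vehicle-anchored 1536-well plates of lung cancer cell lines, held overnight at 37 °C, were pinned with five library-drug doses (not always all listed) spaced by √10. No medium change followed over the next 5 days, after which the cells were fixed, permeabilised and Hoechst-stained together and imaged at 4×. Nuclei were counted with MetaXpress, and viability is treated-well nuclei over vehicle-well nuclei, taken as a median across plates. Plates passed with control CV below 25% and at least one doubling.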

[2] = compound: CC[C@H](CO)Nc1nc(NCc2ccccc2)c2ncn(C(C)C)c2n1 [Seliciclib] + O=C(c1cc(Cc2n[nH]c(=O)c3ccccc23)ccc1F)N1CCN(C(=O)C2CC2)CC1 [Olaparib] (partner 8 µM)
How it was run: (§1)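 Relative viability divides the nuclei count in treated wells by that in vehicle wells. Lung cancer cell lines were seeded in 1536-well plates, dosed by pin tool the next day, and fixed and stained after 5 days in one step with final 0.05% Triton X-100, 1% formaldehyde and 1 ug/ml Hoechst. Dosing was a single drug or a fixed anchor-drug dose plus five library-drug doses (not always all listed) in √10 steps, and values are medians of duplicate plates imaged at 4×.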

[3] = compound: CC[C@H](CO)Nc1nc(NCc2ccccc2)c2ncn(C(C)C)c2n1 [Seliciclib] + N=C(N)NC(=N)NCCc1ccccc1 [Phenformin] (partner 250 µM)
How it was run: as §1

[4] = compound: CC[C@H](CO)Nc1nc(NCc2ccccc2)c2ncn(C(C)C)c2n1 [Seliciclib] + CC(=O)Nc1cccc(-n2c(=O)n(C3CC3)c(=O)c3c(Nc4ccc(I)cc4F)n(C)c(=O)c(C)c32)c1 [Trametinib] (partner 0.02 µM)
How it was run: as §1

| Cell Line | relative viability ([1]; 0.08 µM) | relative viability ([1]; 0.253 µM) | relative viability ([1]; 0.8 µM) | relative viability ([1]; 2.53 µM) | relative viability ([1]; 8 µM) | relative viability ([2]; first compound 0.08 µM) | relative viability ([2]; first compound 0.253 µM) | relative viability ([2]; first compound 0.8 µM) | relative viability ([2]; first compound 8 µM) | relative viability ([3]; first compound 0.08 µM) | relative viability ([3]; first compound 0.253 µM) | relative viability ([3]; first compound 0.8 µM) | relative viability ([3]; first compound 2.53 µM) | relative viability ([3]; first compound 8 µM) | relative viability ([4]; first compound 0.08 µM) | relative viability ([4]; first compound 0.253 µM) | relative viability ([4]; first compound 0.8 µM) | relative viability ([4]; first compound 8 µM) | relative viability ([2]; first compound 2.53 µM) | relative viability ([4]; first compound 2.53 µM) |
| --- | --- | --- | --- | --- | --- | --- | --- | --- | --- | --- | --- | --- | --- | --- | --- | --- | --- | --- | --- | --- |
| NCI-H1395 | 0.978 | 0.725 | 0.857 | 0.789 | 0.94 | 0.459 | 0.422 | 0.43 | 0.448 | 0.433 | 0.438 | 0.455 | 0.453 | 0.428 | 1.04 | 0.843 | 0.968 | 1.04 | – | – |
| HCC-827 | 1.04 | 1.07 | 1.01 | 1.05 | 0.907 | 0.623 | 0.66 | 0.644 | 0.624 | 0.4 | 0.422 | 0.402 | 0.435 | 0.351 | 0.494 | 0.519 | 0.525 | 0.365 | 0.612 | 0.533 |
| ChaGo-K-1 | 1.05 | 0.995 | 0.923 | 0.935 | 0.912 | 0.424 | 0.464 | 0.379 | 0.359 | 0.485 | 0.389 | 0.508 | 0.422 | 0.384 | 0.838 | 0.87 | 0.894 | 0.745 | 0.425 | 0.873 |
| NCI-H2228 | 0.974 | 0.88 | 1.01 | 0.923 | 0.753 | 0.905 | 0.649 | 0.741 | 0.654 | 0.322 | 0.209 | 0.287 | 0.275 | 0.257 | 0.504 | 0.204 | 0.498 | 0.528 | 0.577 | 0.497 |
| NCI-H1793 | 0.86 | 0.771 | 0.785 | 0.859 | 0.764 | 0.942 | 0.655 | 0.834 | 0.761 | 0.378 | 0.307 | 0.378 | 0.32 | 0.227 | 0.364 | 0.433 | 0.461 | 0.291 | 1.09 | 0.411 |
| EMC-BAC-2 | 0.978 | 0.894 | 1.03 | 0.654 | 0.811 | 0.493 | 0.494 | 0.59 | 0.446 | 0.505 | 0.515 | 0.524 | 0.436 | 0.479 | 0.883 | 0.934 | 0.809 | 0.778 | 0.447 | 0.721 |
| NCI-H522 | 0.944 | 0.94 | 1.05 | 0.847 | 0.727 | 0.797 | 0.621 | 0.533 | 0.59 | 0.731 | 0.655 | 0.645 | 0.599 | 0.709 | 0.735 | 0.672 | 0.778 | 0.713 | 0.64 | 0.673 |
| NCI-H23 | 1.01 | 0.81 | 0.991 | 0.449 | 0.565 | 0.346 | 0.31 | 0.377 | 0.262 | 0.83 | 0.809 | 0.784 | 0.672 | 0.603 | 0.428 | 0.343 | 0.406 | 0.308 | 0.269 | 0.297 |
| RERF-LC-KJ | 0.935 | 0.903 | 0.96 | 0.985 | 0.878 | 0.963 | 0.883 | 0.937 | 0.708 | 0.44 | 0.432 | 0.401 | 0.44 | 0.345 | 0.872 | 0.748 | 0.807 | 0.744 | 0.823 | 0.824 |
| NCI-H1944 | 0.983 | 0.947 | 0.898 | 0.73 | 0.707 | 0.377 | 0.394 | 0.348 | 0.392 | 0.188 | 0.22 | 0.168 | 0.178 | 0.168 | 0.399 | 0.277 | 0.428 | 0.368 | 0.425 | 0.48 |
| LC-2-ad | 1 | 1.14 | 0.973 | 0.846 | 0.888 | 0.64 | 0.759 | 0.681 | 0.638 | 0.552 | 0.579 | 0.593 | 0.368 | 0.514 | 0.9 | 0.976 | 0.867 | 0.79 | 0.794 | 0.907 |
| HCC-15 | 1.04 | 1.06 | 0.925 | 0.926 | 0.764 | 0.707 | 0.792 | 0.72 | 0.669 | 0.491 | 0.519 | 0.419 | 0.383 | 0.352 | 0.393 | 0.343 | 0.369 | 0.357 | 0.796 | 0.37 |
| NCI-H2405 | 0.919 | 1.02 | 0.976 | 0.804 | 0.872 | 0.88 | 0.939 | 0.934 | 0.724 | 0.362 | 0.399 | 0.319 | 0.324 | 0.355 | 0.631 | 0.44 | 0.664 | 0.591 | 0.739 | 0.509 |
| LXF-289 | 0.983 | 1.2 | 0.972 | 1.02 | 0.91 | 1.06 | 1.12 | 1.03 | 0.772 | 0.52 | 0.505 | 0.501 | 0.507 | 0.496 | 0.65 | 0.725 | 0.646 | 0.627 | 1.04 | 0.661 |
| CAL-12T | 0.986 | 1.11 | 0.922 | 0.934 | 0.641 | 0.759 | 0.712 | 0.742 | 0.472 | 0.604 | 0.789 | 0.612 | 0.53 | 0.376 | 0.367 | 0.337 | 0.324 | 0.2 | 0.585 | 0.257 |
| COR-L23 | 1.02 | 1.15 | 1.06 | 1.01 | 0.821 | 0.302 | 0.451 | 0.345 | 0.297 | 0.435 | 0.534 | 0.465 | 0.378 | 0.382 | 0.577 | 0.464 | 0.577 | 0.471 | 0.364 | 0.566 |

From the supplement of paper PMC10307832
